Results taken from US7524860B2, “Antibacterial agents” (Pfizer Inc., priority 2004, dated 2009).
Values after ≈ are worked out from the molar mass of the structure shown. Where two headings read alike, the source gives them in different places.

Tested on: Neisseria gonorrhoeae, GC525 (NG-2888)
Assay: in-vitro antibacterial activity, microbroth dilution MIC susceptibility testing
Type: cell-based
Parameters: unit: ug/mL
Conditions: microbroth dilution in gonococcal broth, 20-24 hours at 35 C, lowest concentration preventing visible growth
Method: The in-vitro antibacterial activity of selected compounds was determined against a stain of Neisseria gonorrhoeae, GC525 (NG-2888), which is described by Rouquette-Loughlin et al, in Journal of Bacteriology, February 2003, p. 1101-1106, at p. 1103. In general, minimum inhibitory concentration (MIC) susceptibility testing followed procedures recommended by the National Committee for Clinical Laboratory Standards (NCCLS^1-2) or followed the descriptions described below:
Neisseria gonorrhoeae strains were grown on Chocolate Agar II plates (BBL—Becton Dickinson Microbiology Systems, Cockeysville, Md.) and incubated at 35° C. in a humidified 5% CO2 incubator (Form a Scientific, Marietta Ohio). For microbroth dilution MIC testing, N. gonorrhoeae were tested in gonococcal broth (GCB):
Gram stains were also utilized. Permanent Stock Culture Collection
Bacterial stock cultures are stored as frozen suspensions at −70 C. N. gonorrhoeae cultures are suspended in inactivated Horse Serum (Colorado Serum Company, Denver, Colo.) containing 7.5% glucose prior to snap freezing in a dry ice/ethanol bath.
Preparation of Standardized Test Inocula and Plate Inoculation
Frozen stock cultures were used as the initial source of organisms for performing microbroth dilution MIC testing. Stock cultures were passed on their respective growth medium at least one growth cycle (18-24 hours) prior to their use. Bacterial culture suspensions were prepared directly from Chocolate Agar II plates into 10 mL cation-adjusted Mueller-Hinton Broth (CAMHB, BBL, # BB215069). Before use, cultures were adjusted to an optical density value of 1.6-2 on a Perkin-Elmer Lambda EZ150 Spectrophotometer (Wellesley, Mass.) set at a wavelength of 600 nm. Random cultures were plated for validation of actual colony counts. The adjusted cultures were diluted 400-fold (0.25 mL inoculum+100 mL GCB) into gonococcal broth producing a starting inoculum of approximately 5×10^5 cfu/mL. These cultures were inoculated into test plates (100 uL/well) using a Biomek® FX workstation (Beckman Coulter Inc., Fullerton, Calif.). The inoculated plates were placed in stacks of no more than 4 and covered with an empty plate. Plates were incubated for 20-24 hours at 35 C in a humidified CO2 incubator.
Test Compound (“Drug”) Preparation
Drug stock solutions (2 mg/mL in DMSO) were prepared on the day of testing. Drugs were weight corrected for assay content where necessary.
Drug Dilution Tray Preparation
Microbroth dilution stock plates were prepared in two dilution series, 64-0.06 ug drug/mL and 1-0.001 ug drug/mL. For the high concentration series, 200 uL of stock solution (2 mg/mL) was added to duplicate rows of a 96-well plate. This was used as the first well in the dilution series. Serial two-fold decremental dilutions were made using a BioMek FX robot (Beckman Coulter Inc., Fullerton, Calif.) with 10 of the remaining 11 wells, each of which contained 100 uL of the appropriate solvent/diluent. Row 12 contained solvent/diluent only and served as the control. For tube one of the low concentration series, 200 uL of a 31.25 ug/mL stock was added to duplicate rows of a 96-well plate. Serial two-fold dilutions were made as described above.
Daughter plates were spotted (3.2 uL/well) from the stock plates listed above using the BioMek FX robot and were inoculated with organism (100 uL/well) as described previously.
After incubation, the degree of growth in each well was read visually with the aid of a Test Reading Mirror (Dynatech Lab 220-16, Dynex Technologies, Chantilly, Va.). 96-well test plates are read in a darkened room with a single light shining from above. The MIC is the lowest concentration of drug that prevents macroscopically visible growth under the conditions of the test. […] If MIC values in duplicate tests differ by 1 well (two-fold), the […] value is reported. If duplicate tests vary by 2 dilutions (four-fold), the middle value is reported.

[1] = Neisseria gonorrhoeae, read-out: MIC

Compound | MIC [µg/mL] | MIC [1] [µg/mL]
1-(5-Cyclopropylaminomethyl-7-pyridin-3-yl-imidazo[1,2-a]pyridin-2-yl)-3-ethyl-urea [Example 114] | 32.0 | –
1-Ethyl-3-(5-ethylaminomethyl-7-pyridin-3-yl-imidazo[1,2-a]pyridin-2-yl)-urea [Example 115] | 32.0 | –
1-Ethyl-3-[7-pyridin-3-yl-5-(pyrrolidine-1-carbonyl)-imidazo[1,2-a]pyridin-2-yl]-urea [Example 120] | >64.0 | –
1-[7-(6-Dimethylamino-pyridin-3-yl)-[1,2,4]triazolo[1,5-a]pyridin-2-yl]-3-ethyl-urea [Example 4] | >64.0 | –
2-(3-Ethyl-ureido)-7-(4-methoxy-phenyl)-imidazo[1,2-a]pyridine-5-carboxylic acid ethylamide [Example 119] | 64.0 | –
7-(2-Dimethylamino-pyrimidin-5-yl)-2-(3-isopropyl-ureido)-imidazo[1,2-a]pyridine-5-carboxylic acid ethylamide [Example 117] | >64.0 | –
CCNC(=O)Nc1nc2cc(-c3cncnc3)ccn2n1 [Example 5, 1-Ethyl-3-(7-pyrimidin-5-yl-[1,2,4]triazolo[1,5-a]pyridin-2-yl)-urea] | – | 64 (≈ 226 µM)
CCNC(=O)Nc1nc2cc(-c3cccnc3)cc(C(=O)NCC)n2n1 [Example 8, 2-(3-Ethyl-ureido)-7-pyridin-3-yl-[1,2,4]triazolo[1,5-a]pyridine-5-carboxylic acid ethylamide] | – | 1 (≈ 2.83 µM)
CCCNC(=O)c1cc(-c2cccnc2)cc2nc(NC(=O)NCC)nn12 [Example 9, 2-(3-Ethyl-ureido)-7-pyridin-3-yl-[1,2,4]triazolo[1,5-a]pyridine-5-carboxylic acid propylamide] | – | 4 (≈ 10.9 µM)
CCNC(=O)Nc1nc2cc(-c3cccnc3)cc(C(=O)NCC3CC3)n2n1 [Example 10, 2-(3-Ethyl-ureido)-7-pyridin-3-yl-[1,2,4]triazolo[1,5-a]pyridine-5-carboxylic acid cyclopropylmethyl-amide] | – | 8 (≈ 21.1 µM)
CCNC(=O)Nc1nc2cc(-c3cccnc3)cc(C(=O)NCc3ccccc3)n2n1 [Example 11, 2-(3-Ethyl-ureido)-7-pyridin-3-yl-[1,2,4]triazolo[1,5-a]pyridine-5-carboxylic acid benzylamide] | – | > 64
CCNC(=O)Nc1nc2cc(-c3cccnc3)cc(C(=O)NC(C)C)n2n1 [Example 12, 2-(3-Ethyl-ureido)-7-pyridin-3-yl-[1,2,4]triazolo[1,5-a]pyridine-5-carboxylic acid isopropylamide] | – | 2 (≈ 5.44 µM)
CCNC(=O)Nc1nc2cc(-c3cccnc3)cc(C(=O)NC3CC3)n2n1 [Example 13, 2-(3-Ethyl-ureido)-7-pyridin-3-yl-[1,2,4]triazolo[1,5-a]pyridine-5-carboxylic acid cyclopropylamide] | – | 4 (≈ 10.9 µM)
CCNC(=O)Nc1nc2cc(-c3cccnc3)cc(C(=O)N(CC)CC)n2n1 [Example 14, 2-(3-Ethyl-ureido)-7-pyridin-3-yl-[1,2,4]triazolo[1,5-a]pyridine-5-carboxylic acid diethylamide] | 16 (≈ 41.9 µM) | –
CCNC(=O)Nc1nc2cc(-c3cccnc3)cc(-c3cnco3)n2n1 [Example 22, N-Ethyl-N′-[5-(1,3-oxazol-5-yl)-7-pyridin-3-yl[1,2,4]triazolo[1,5-a]pyridin-2-yl]urea] | – | 0.5 (≈ 1.43 µM)
CCNC(=O)Nc1nc2cc(-c3cccnc3)cc(/C=N/O)n2n1 [Example 24, N-Ethyl-N′-{5-[(E)-(hydroxyimino)methyl]-7-pyridin-3-yl[1,2,4]triazolo[1,5-a]pyridin-2-yl}urea] | – | > 64

Compound | MIC [µg/mL] | MIC [1] [µg/mL]
CCNC(=O)Nc1nc2cc(-c3cccnc3)cc(C(C)O)n2n1 (stereo not shown) [Example 25, N-Ethyl-N′-[5-(1-hydroxyethyl)-7-pyridin-3-yl[1,2,4]triazolo[1,5-a]pyridin-2-yl]urea] | – | 1 (≈ 3.06 µM)
CCNC(=O)Nc1nc2cc(-c3cccnc3)cc(C(C)=O)n2n1 [Example 26, N-(5-Acetyl-7-pyridin-3-yl[1,2,4]triazolo[1,5-a]pyridin-2-yl)-N′-ethylurea] | – | 1 (≈ 3.08 µM)
CCNC(=O)Nc1nc2cc(-c3cccnc3)cc(C#N)n2n1 [Example 27, N-(5-Cyano-7-pyridin-3-yl[1,2,4]triazolo[1,5-a]pyridin-2-yl)-N′-ethylurea] | – | 2 (≈ 6.51 µM)
CCNC(=O)Nc1nc2cc(-c3cccnc3)cc(-c3nnc(CC(C)=O)o3)n2n1 [Example 28, 1-Ethyl-3-{5-[5-(2-oxo-propyl)-[1,3,4]oxadiazol-2-yl]-7-pyridin-3-yl-[1,2,4]triazolo[1,5-a]pyridin-2-yl}-urea] | – | > 64
CCNC(=O)Nc1nc2cc(-c3cccnc3)cc(-c3nnc(C(C)C)o3)n2n1 [Example 29] | >64.0 | –
CCNC(=O)Nc1nc2cc(-c3cnc(N(C)C)nc3)cc(-c3nnc(CC(C)C)s3)n2n1 [Example 30] | >64.0 | –
CCNC(=O)Nc1nc2cc(-c3cccnc3OC)cc(C(=O)NCC)n2n1 [Example 31, 2-(3-Ethyl-ureido)-7-(2-methoxy-pyridi-3-yl)-[1,2,4]triazolo[1,5-a]pyridine-5-carboxylic acid ethyl amide] | 8.00 (≈ 20.9 µM) | –
CCNC(=O)Nc1nc2cc(-c3cnccc3OC)cc(C(=O)NCC)n2n1 [Example 32, 2-(3-Ethyl-ureido)-7-(4-methoxy-pyridin-3-yl)-[1,2,4]triazolo[1,5-a]pyridine-5-carboxylic acid ethyl amide] | – | 1 (≈ 2.61 µM)
CCNC(=O)Nc1nc2cc(C3=CCOCC3)cc(C(=O)NCC)n2n1 [Example 33, 7-(3,6-Dihydro-2H-pyran-4-yl)-2-(3-ethyl-ureido)-[1,2,4]triazolo[1,5-a]pyridine-5-carboxylic acid ethyl amide] | – | > 64
CCNC(=O)Nc1nc2cc(-c3ccc(F)nc3)cc(C(=O)NCC)n2n1 [Example 34, 2-(3-Ethyl-ureido)-7-(6-fluoro-pyridin-3-yl)-[1,2,4]triazolo[1,5-a]pyridine-5-carboxylic acid ethylamide] | – | 1 (≈ 2.69 µM)
CCNC(=O)Nc1nc2cc(-c3ccc(C)nc3C)cc(C(=O)NCC)n2n1 [Example 35, 7-(2,6-Dimethyl-pyridin-3-yl)-2-(3-ethyl-ureido)-[1,2,4]triazolo[1,5-a]pyridine-5-carboxylic acid ethyl amide] | – | 8 (≈ 21 µM)
CCNC(=O)Nc1nc2cc(-c3cccnc3)cc(C(=O)N(C)CCN(CC)CC)n2n1 [Example 36, 2-(3-Ethyl-ureido)-7-pyridin-3-yl-[1,2,4]triazolo[1,5-a]pyridine-5-carboxylic acid(2-diethylamino-ethyl)-methyl-amide] | – | > 64
CCNC(=O)Nc1nc2cc(-c3cccnc3)cc(C(=O)N[C@H]3CC[C@H](O)CC3)n2n1 [Example 39, trans-2-(3-Ethyl-ureido)-7-pyridin-3-yl-[1,2,4]triazolo[1,5-a]pyridine-5-carboxylic acid (4-hydroxy-cyclohexyl)-amide] | – | 32 (≈ 75.6 µM)
CCNC(=O)Nc1nc2cc(-c3cccnc3)cc(C(=O)NCC(C)C)n2n1 [Example 40, 2-(3-Ethyl-ureido)-7-pyridin-3-yl-[1,2,4]triazolo[1,5-a]pyridine-5-carboxylic acid isobutyl-amide] | – | 2 (≈ 5.24 µM)
CCNC(=O)Nc1nc2cc(-c3cccnc3)cc(C(=O)NC3CCN(C(C)C)CC3)n2n1 [Example 41, 2-(3-Ethyl-ureido)-7-pyridin-3-yl-[1,2,4]triazolo[1,5-a]pyridine-5-carboxylic acid (1-isopropyl-piperidin-4-yl)-amide] | – | 16 (≈ 35.5 µM)
